{
  "source": "patent US20230175066A1",
  "about": "“ANALYSIS/DIAGNOSIS METHOD UTILIZING RNA MODIFICATION” (OSAKA UNIVERSITY, priority 2018, published 2023)",
  "key": {"[1]": {"test_system": "trifluridine resistant strain of cancer cell strain DLD-1", "test": "IC50 for trifluridine in the trifluridine resistant strain prepared from DLD-1", "format": "cell-based", "conditions": "Homo sapiens; DLD-1 after maintenance culture for 6 months or more in the presence of trifluridine (about 10 mg/mL)", "description": "The cancer cell strain DLD-1 obtained from a cell bank such as ATCC or RIKEN was subjected to maintenance culture for 6 months or more in the presence of trifluridine (FTD) (Aldrich-Sigma) (about 10 mg/mL). The maintenance culture was subcultured about twice a week to maintain 60 to 80% confluence at 37° C. in a serum 10% added DMEM medium on a plastic dish."}, "[2]": {"test_system": "DLD-1 cell strain, 5-FU resistant strain, FTD resistant strain", "design": "methylation on microRNA, FTD resistant strain / miRNA methylation, FTD resistant strain: unit not given here", "conditions": "for Rate of change, FTD resistance (fold) / Rate of change, FTD (fold): FTD resistant versus parental strain; for methylation on microRNA, FTD parental strain / methylation on microRNA, FTD resistant strain: RIP sequencing; for methylation on microRNA, FTD parental strain: DLD-1, FTD parental strain; for methylation on microRNA, FTD resistant strain: DLD-1 FTD resistant strain; for miRNA methylation, FTD parental strain / miRNA methylation, FTD resistant strain: miRNAs that decrease post-surgery", "description": "For an original DLD-1 cell strain and each resistant strain (5-FU resistant strain and FTD resistant strain), RNA methylation analysis in accordance with the protocol for RIP sequencing described above and microarray or mRNA expression analysis similar to the qRT-PCR of Example 2-2 was performed. RIP sequencing and RNA expression information based primary component analysis (two dimensional projection using a component resulting in maximum dispersion) was performed. The results are represented as mean ± standard deviation (SD) based on three independent experiments. The statistical significance of the results was evaluated by pairwise T-TEST using R version 3.4.3 (2017-11-30) on Microsoft Excel® software (Microsoft Campus, Redmond, WA, USA). P value < 0.05 was considered statistically significant. As a result, wild-type strain and each resistant strain was clearly distinguished. […] Total RNA was purified in accordance with the protocol for Trizol (Invitrogen) from the original DLD-1 cell strain and each resistant strain (5-FU resistant strain and FTD resistant strain), and then RNA methylation analysis was performed according to the protocol for RIP sequencing described above. Ribo-Zero rRNA Removal Kit (Illumina) was used for the removal of rNRAs."}},
  "data": [
    {"compound": "O=c1[nH]c(=O)n([C@H]2C[C@H](O)[C@@H](CO)O2)cc1C(F)(F)F", "note": "[trifluridine]", "values": [
      {"measurement": "IC50", "setting": "[1]", "result": 300, "unit": "µM"}
    ]},
    {"compound": "miR-378d (ACUGGACUUGGAGUCAGAAA; chemistry not fully specified; listed as Homo sapiens)", "values": [
      {"measurement": "Rate of change, 5-FU resistance (fold)", "setting": "[2]", "result": 1.54, "unit": "fold"},
      {"measurement": "methylation on microRNA, 5-FU parental strain", "setting": "[2]", "result": 144},
      {"measurement": "methylation on microRNA, 5-FU resistant strain", "setting": "[2]", "result": 30},
      {"measurement": "Rate of change, FTD resistance (fold)", "setting": "[2]", "result": 0.36, "unit": "fold"},
      {"measurement": "methylation on microRNA, FTD parental strain", "setting": "[2]", "result": 80},
      {"measurement": "methylation on microRNA, FTD resistant strain", "setting": "[2]", "result": 63}
    ]},
    {"compound": "miR-378e (ACUGGACUUGGAGUCAGGA; chemistry not fully specified; listed as Homo sapiens)", "values": [
      {"measurement": "Rate of change, 5-FU resistance (fold)", "setting": "[2]", "result": 1.64, "unit": "fold"},
      {"measurement": "methylation on microRNA, 5-FU parental strain", "setting": "[2]", "result": 11},
      {"measurement": "methylation on microRNA, 5-FU resistant strain", "setting": "[2]", "result": 2},
      {"measurement": "Rate of change, FTD resistance (fold)", "setting": "[2]", "result": 0.86, "unit": "fold"},
      {"measurement": "methylation on microRNA, FTD parental strain", "setting": "[2]", "result": 3},
      {"measurement": "methylation on microRNA, FTD resistant strain", "setting": "[2]", "result": 6}
    ]},
    {"compound": "miR-378f (ACUGGACUUGGAGCCAGAAG; chemistry not fully specified; listed as Homo sapiens)", "values": [
      {"measurement": "Rate of change, 5-FU resistance (fold)", "setting": "[2]", "result": 0.67, "unit": "fold"},
      {"measurement": "methylation on microRNA, 5-FU parental strain", "setting": "[2]", "result": 3},
      {"measurement": "methylation on microRNA, 5-FU resistant strain", "setting": "[2]", "result": 1},
      {"measurement": "Rate of change, FTD resistance (fold)", "setting": "[2]", "result": "(0.50) fold"},
      {"measurement": "methylation on microRNA, FTD parental strain", "setting": "[2]", "result": 2},
      {"measurement": "methylation on microRNA, FTD resistant strain", "setting": "[2]", "result": 1}
    ]},
    {"compound": "miR-378h (ACUGGACUUGGUGUCAGAUGG; chemistry not fully specified; listed as Homo sapiens)", "values": [
      {"measurement": "Rate of change, 5-FU resistance (fold)", "setting": "[2]", "result": 0.00, "unit": "fold"},
      {"measurement": "methylation on microRNA, 5-FU parental strain", "setting": "[2]", "result": 1},
      {"measurement": "methylation on microRNA, 5-FU resistant strain", "setting": "[2]", "result": 0},
      {"measurement": "methylation on microRNA, FTD parental strain", "setting": "[2]", "result": 0},
      {"measurement": "methylation on microRNA, FTD resistant strain", "setting": "[2]", "result": 0}
    ]},
    {"compound": "miR-378i (ACUGGACUAGGAGUCAGAAGG; chemistry not fully specified; listed as Homo sapiens)", "values": [
      {"measurement": "Rate of change, 5-FU resistance (fold)", "setting": "[2]", "result": 0.50, "unit": "fold"},
      {"measurement": "methylation on microRNA, 5-FU parental strain", "setting": "[2]", "result": 18},
      {"measurement": "methylation on microRNA, 5-FU resistant strain", "setting": "[2]", "result": 1},
      {"measurement": "Rate of change, FTD resistance (fold)", "setting": "[2]", "result": 0.33, "unit": "fold"},
      {"measurement": "methylation on microRNA, FTD parental strain", "setting": "[2]", "result": 6},
      {"measurement": "methylation on microRNA, FTD resistant strain", "setting": "[2]", "result": 3}
    ]},
    {"compound": "miR-492 (AGGACCUGCGGGACAAGAUUCUU; chemistry not fully specified; listed as Homo sapiens)", "values": [
      {"measurement": "methylation on microRNA, 5-FU parental strain", "setting": "[2]", "result": 0},
      {"measurement": "methylation on microRNA, 5-FU resistant strain", "setting": "[2]", "result": 0},
      {"measurement": "methylation on microRNA, FTD parental strain", "setting": "[2]", "result": 0},
      {"measurement": "methylation on microRNA, FTD resistant strain", "setting": "[2]", "result": 0}
    ]},
    {"compound": "miR-3122 (GUUGGGACAAGAGGACGGUCUU; chemistry not fully specified; listed as Homo sapiens)", "values": [
      {"measurement": "methylation on microRNA, 5-FU parental strain", "setting": "[2]", "result": 0},
      {"measurement": "methylation on microRNA, 5-FU resistant strain", "setting": "[2]", "result": 2},
      {"measurement": "methylation on microRNA, FTD parental strain", "setting": "[2]", "result": 0},
      {"measurement": "methylation on microRNA, FTD resistant strain", "setting": "[2]", "result": 0}
    ]},
    {"compound": "miR-3131 (UCGAGGACUGGUGGAAGGGCCUU; chemistry not fully specified; listed as Homo sapiens)", "values": [
      {"measurement": "Rate of change, 5-FU resistance (fold)", "setting": "[2]", "result": "(0.33) fold"},
      {"measurement": "methylation on microRNA, 5-FU parental strain", "setting": "[2]", "result": 9},
      {"measurement": "methylation on microRNA, 5-FU resistant strain", "setting": "[2]", "result": 3},
      {"measurement": "Rate of change, FTD resistance (fold)", "setting": "[2]", "result": "(10.00) fold"},
      {"measurement": "methylation on microRNA, FTD parental strain", "setting": "[2]", "result": 1},
      {"measurement": "methylation on microRNA, FTD resistant strain", "setting": "[2]", "result": 10}
    ]},
    {"compound": "miR-3690 (ACCUGGACCCAGCGUAGACAAAG; chemistry not fully specified; listed as Homo sapiens)", "values": [
      {"measurement": "methylation on microRNA, 5-FU parental strain", "setting": "[2]", "result": 0},
      {"measurement": "methylation on microRNA, 5-FU resistant strain", "setting": "[2]", "result": 0},
      {"measurement": "Rate of change, FTD resistance (fold)", "setting": "[2]", "result": 0.00, "unit": "fold"},
      {"measurement": "methylation on microRNA, FTD parental strain", "setting": "[2]", "result": 1},
      {"measurement": "methylation on microRNA, FTD resistant strain", "setting": "[2]", "result": 0}
    ]},
    {"compound": "miR-4435 (AUGGCCAGAGCUCACACAGAGG; chemistry not fully specified; listed as Homo sapiens)", "values": [
      {"measurement": "Rate of change 5-FU (fold)", "setting": "[2]", "result": 2.38, "unit": "fold"},
      {"measurement": "miRNA methylation, 5-FU parental strain", "setting": "[2]", "result": 28},
      {"measurement": "miRNA methylation, 5-FU resistant strain", "setting": "[2]", "result": 14},
      {"measurement": "miRNA methylation, FTD parental strain", "setting": "[2]", "result": 46},
      {"measurement": "miRNA methylation, FTD resistant strain", "setting": "[2]", "result": 100},
      {"measurement": "Rate of change, FTD (fold)", "setting": "[2]", "result": 1.41, "unit": "fold"}
    ]},
    {"compound": "miR-4467 (UGGCGGCGGUAGUUAUGGGCUU; chemistry not fully specified; listed as Homo sapiens)", "values": [
      {"measurement": "Rate of change 5-FU (fold)", "setting": "[2]", "result": "(1.00) fold"},
      {"measurement": "miRNA methylation, 5-FU parental strain", "setting": "[2]", "result": 6},
      {"measurement": "miRNA methylation, 5-FU resistant strain", "setting": "[2]", "result": 6},
      {"measurement": "miRNA methylation, FTD parental strain", "setting": "[2]", "result": 1},
      {"measurement": "miRNA methylation, FTD resistant strain", "setting": "[2]", "result": 12},
      {"measurement": "Rate of change, FTD (fold)", "setting": "[2]", "result": 8.00, "unit": "fold"}
    ]},
    {"compound": "miR-4754 (AUGCGGACCUGGGUUAGCGGAGU; chemistry not fully specified; listed as Homo sapiens)", "values": [
      {"measurement": "Rate of change, 5-FU resistance (fold)", "setting": "[2]", "result": "(1.33) fold"},
      {"measurement": "methylation on microRNA, 5-FU parental strain", "setting": "[2]", "result": 3},
      {"measurement": "methylation on microRNA, 5-FU resistant strain", "setting": "[2]", "result": 4},
      {"measurement": "Rate of change, FTD resistance (fold)", "setting": "[2]", "result": 0.00, "unit": "fold"},
      {"measurement": "methylation on microRNA, FTD parental strain", "setting": "[2]", "result": 4},
      {"measurement": "methylation on microRNA, FTD resistant strain", "setting": "[2]", "result": 0}
    ]}
  ]
}
